Source: US9447136B2, “Semisynthetic derivatives of Nystatin A1” (BLIRT S.A., priority 2012, dated 2016)
Like-named read-outs stand apart in the source and are kept apart here.

Key:
[1] = test system: Saccharomyces cerevisiae ATCC 9763; assay: Antifungal activity in vitro, serial dilution in RPMI 1640; assay type: cell-based; details: Table 2A; RPMI 1640, pH 7.0; A531 at most 20% of control
Outline: (§1)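 Broth microdilution in buffered RPMI 1640, pH 7.0, following NCCLS M27-A2. Growth was read as optical density at 531 nm. IC50 was interpolated from A531-versus-concentration plots as the concentration giving 50% of control A531; MIC was the lowest concentration giving at most 20% of control A531.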

Candida krusei DSM 6128 = assay: as above; assay type: cell-based; details: Table 2A; RPMI 1640, pH 7.0
Outline: as §1

[2] = test system: Candida glabrata DSM 11226; assay: as above; assay type: cell-based; details: Table 2A; RPMI 1640, pH 7.0
Outline: as §1

[3] = test system: Candida albicans ATCC 10231; assay: as above; assay type: cell-based; details: Table 2A, RPMI 1640, pH 7.0; for Antifungal activity Candida albicans ATCC 10231 IC50: A531 50% of control; for Antifungal activity Candida albicans ATCC 10231 MIC: A531 at most 20% of control
Outline: as §1

[4] = test system: Candida tropicalis KKP 334; assay: as above; assay type: cell-based; details: Table 2A; RPMI 1640, pH 7.0
Outline: as §1

HepG2 = assay: Cytotoxic activity against mammalian cells in tissue culture (MTT); assay type: cell-based, human
Description: (§2) For examinations were used selected cell lines: CCRF-CEM—human acute lymphoblastic leukemia; HepG2—human malignant hepatoma; LLC-PK1—epithelial cell of pig kidney; All lines were from ATCC collection.
(§3) The study are conducted using described below methods of culturing and determination of cytotoxic activity.
(§4) CCRF-CEM cells were cultured in medium RPMI 1640+10% fetal bovine serum (FBS), LLC-PK1 cells in medium Medium 199+3% FBS, HepG2 cells in medium MEM+10% FBS. All media contained 100 μg/ml of penicillin G and streptomycin. 24-wells microplates containing appropriate medium were inoculated with the cells in amount of 1.2×10^4 cells/well and allowed to stand overnight. Next, tested compounds as solution in dimethylsulfoxide (DMSO) were added in volume of 10 μl (serial 2× dilutions). To control well 10 μl of DMSO was added. Microplates with cell suspensions were incubated for 120 h at temperature 37° C. at atmosphere of 95%/5% CO2. After incubation, to all wells 200 μl of solution of 3-(4,5-dimethylthiazole-2-yl)-2,5-diphenylotetrazole bromide (MTT) in PBS (4 mg/ml) was added and plates were further incubated for 4 h at 37° C. Next, to dissolve crystals of formazane 1 ml of DMSO was added and absorption of solutions was measured at the wavelength λ=540 nm (A540), using a microplates reader (Victor^3, Perkin-Wallac). […] From these graphs IC50 values were read, that is concentration of tested compound in the presence at which A540 value is half of A540 value measured in the control sample.

CCRF-CEM = assay: as above; assay type: cell-based, human
Description: as §2, §3, §4

Human erythrocytes = assay: Hemotoxicity (hemolytic activity); details: for Hemotoxicity BEH50: 37° C., 30 minutes, concentration causing 50% hemolysis, maximum concentration 300 μg/ml; for EH10: concentration causing 10% of hemolysis
Outline: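 Human erythrocytes in saline (2×10^7/ml) were incubated with serially diluted compound at 37 °C for 30 min, then centrifuged. Released hemoglobin was read as A540 against 0.1% Triton X-100 as full hemolysis. EH50 is the interpolated concentration giving 50% of the control A540.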

LLC-PK1 = assay: Cytotoxic activity against mammalian cells in tissue culture (MTT); assay type: cell-based, pig
Description: as §2, §3, §4

Compound | Antifungal activity Saccharomyces cerevisiae ATCC 9763 MIC [1] | Antifungal activity Candida krusei DSM 6128 MIC (Candida krusei DSM 6128) | Antifungal activity Candida glabrata DSM 11226 MIC [2] | Antifungal activity Candida albicans ATCC 10231 IC50 [3] | Antifungal activity Candida albicans ATCC 10231 MIC [3] | Antifungal activity Candida tropicalis KKP 334 MIC [4] | Cytotoxicity IC50 HepG2 (HepG2; HepG2, 120 h, MTT) | Cytotoxicity IC50 CCRF-CEM (CCRF-CEM; CCRF-CEM, 120 h, MTT) | Hemotoxicity BEH50 (Human erythrocytes; human erythrocytes) | EH10 (Human erythrocytes; human erythrocytes) | Cytotoxicity IC50 LLC-PK1 (LLC-PK1; LLC-PK1, 120 h, MTT) | % of hemolysis at the concentration 60 μg ml^−1 (Human erythrocytes; human erythrocytes, 60 μg ml^−1) | Cytotoxicity IC50 HepG2 (HepG2) | Cytotoxicity IC50 CCRF-CEM (CCRF-CEM) | Cytotoxicity IC50 LLC-PK1 (LLC-PK1) | % of hemolysis at the concentration 60 μg ml^−1 (Human erythrocytes)
CC1OC(O[C@H]2/C=C/C=C/C=C/C=C/CC/C=C/C=C/[C@H](C)[C@@H](O)[C@@H](C)[C@H](C)OC(=O)C[C@H](O)C[C@H](O)C[C@H](O)CC[C@@H](O)[C@H](O)CC3(O)C[C@H](O)[C@@H](C(=O)O)[C@H](C2)O3)C(O)C(NCc2ccccc2)C1O (some centres unmarked) [Compound N21, N-benzylnystatin A1] | 2 µg/mL | 4 µg/mL | 4 µg/mL | 2.32 µg/mL | 4 µg/mL | 4 µg/mL | 68.3 ± 8.06 µg/mL | 91.9 ± 4.35 µg/mL | 188.56 µg/mL | 91.60 µg/mL | >100 µg/mL |  |  |  |  | 
CC1OC(O[C@H]2/C=C/C=C/C=C/C=C/CC/C=C/C=C/[C@H](C)[C@@H](O)[C@@H](C)[C@H](C)OC(=O)C[C@H](O)C[C@H](O)C[C@H](O)CC[C@@H](O)[C@H](O)CC3(O)C[C@H](O)[C@@H](C(=O)O)[C@H](C2)O3)C(O)C(NC(=O)[C@@H](N)Cc2ccccc2)C1O (stereo partly drawn) [Compound N34, N-L-phenylalanylnystatin A1] | 4 µg/mL | 8 µg/mL | 8 µg/mL | 6.01 µg/mL | 8 µg/mL | 8 µg/mL | >100 µg/mL | >100 µg/mL | >300 µg/mL |  |  | 0.02% |  |  |  | 
CC1OC(O[C@H]2/C=C/C=C/C=C/C=C/CC/C=C/C=C/[C@H](C)[C@@H](O)[C@@H](C)[C@H](C)OC(=O)C[C@H](O)C[C@H](O)C[C@H](O)CC[C@@H](O)[C@H](O)CC3(O)C[C@H](O)[C@@H](C(=O)O)[C@H](C2)O3)C(O)C(NC(=O)[C@H](N)Cc2cccc3ccccc23)C1O (some centres unmarked) [Compound N39] | 8 µg/mL | 16 µg/mL | 16 µg/mL | 6.05 µg/mL | 8 µg/mL | 8 µg/mL |  |  |  |  |  |  | >100 µg/mL | >100 µg/mL | >100 µg/mL | 
N-[3-(piperidin-1-yl)propionyl]nystatin A1 [Compound N44] | 4 µg/mL | 8 µg/mL | 8 µg/mL | 2.95 µg/mL | 4 µg/mL | 4 µg/mL | >100 µg/mL | >100 µg/mL |  | 209.39 µg/mL | >100 µg/mL |  |  |  |  | 0.95%
